Tests used:
[1] = Cytotoxicity against human HuH7 cells after 2 hrs by WST-1 assay relative to control; assay type: cell-based, Huh-7
Hepatitis C virus = test: Antiviral activity against HCV genotype 1b infected in human HuH7 cells assessed as inhibition of viral RNA replication after 3 days by luciferase reporter gene assay; assay type: functional, organism-based, Hepacivirus hominis; conditions: Huh-7, 72 h

| SMILES | CC50 at 2 h [1] [µM] | IC50 (Hepatitis C virus) [µM] |
| --- | --- | --- |
| CC(C)OC(=O)[C@H](C)NP(=O)(OC[C@@]1(F)O[C@@H](n2ccc(=O)[nH]c2=O)[C@](C)(F)[C@@H]1O)Oc1ccc2ccccc2c1 (stereo partly specified) | > 100 | – |
| CC(C)OC(=O)[C@H](C)NP(=O)(OC[C@@]1(F)O[C@@H](n2ccc(=O)[nH]c2=O)[C@](C)(F)[C@@H]1O)Oc1cccc2ccccc12 (stereo partly specified) | > 100 | 0.115 |
| CCC(=O)O[C@H]1[C@@](C)(F)[C@H](n2ccc(=O)[nH]c2=O)O[C@]1(F)COP(=O)(N[C@@H](C)C(=O)OC(C)C)Oc1cccc2ccccc12 (stereo partly specified) | 67.8 | 0.151 |
| CC(C)OC(=O)[C@H](C)NP(=O)(OC[C@@]1(F)O[C@@H](n2ccc(=O)[nH]c2=O)[C@](C)(F)[C@@H]1O)Oc1ccccc1 (stereo partly specified) | > 100 | – |

Source: ChEMBL document CHEMBL3124819, “2',4'-Difluoro-2'-methyl Substituted Nucleoside Derivatives as Inhibitors of HCV RNA Replication” (ACS Med Chem Lett, 2014)
